Measurements reported in US20030114460A1, “Pharmaceutical conjugates with enhanced pharmacokinetic characteristics” (priority 2001, published 2003).
Like-named read-outs stand apart in the source and are kept apart here. Each block holds one compound with its values, some of them ahead of it.

How the values were obtained:
[1] = tested on: CMV retinitis; assay: Patient case, CMV retinitis (Example 5); format: in vivo, human
Source text: A person complains of gradual onset of floaters and progressive reduction of vision in both eyes, but without pain. The patient has been HIV+ for 7 years, and was recently hospitalized for Cryptococcal pneumonia. The patient is taking AZT, ddI, indinivir, and has been for the past three years, with moderate compliance. […] Granular hemorrhagic areas are noted throughout the retina, with a “brushfire” appearance. […] These findings are all evidence of CMV retinitis, secondary to AIDS. Ganciclovir-conjugate 0.5% 1 drop four times daily in both eyes is prescribed. At a two-week follow-up examination, the patient states full compliance with the treatment protocol. The patient also states an improvement in vision with a reduced number of floaters. […] The patient is advised to continue the ganciclovir-conjugate drops indefinitely.

[2] = format: in vivo, human
Procedure: A person receives a routine eye examination. […] With their habitual spectacle correction, their best corrected visual acuities are 20/20 in both eyes. Their pupils are found to be round, equally reactive to light, and without any presence of afferent pupillary defect. […] Their intraocular pressures are measured at 32 mmHg in both eyes (with the Goldmann tonometer at 3 pm). […] A Humphrey C-20 automated threshold visual field test indicates the presence of generalized depression in both eyes. […] Their blood pressure is 125/85 and their pulse rate is 60 beats/min. Because of the enlarged cup to disc ratio, elevated intraocular pressures, and the generalized depression of the threshold visual fields, they are diagnosed with open angle glaucoma. Timolol 0.5% 1 drop two times daily in both eyes is prescribed for two weeks. The patient is to return in two weeks for a follow-up evaluation. At the follow-up evaluation, they state that they have been compliant with the prescribed therapy. Their intraocular pressure is measured at 28 mmHg at 1 pm with the Goldmann tonometer. Their blood pressure is 118/86 and their pulse rate is 65 beats/min. Bromonidine-conjugate 0.2% 1 drop two times daily in both eyes is added to the treatment regimen. After another two weeks, the patient has a follow-up evaluation, during which, the patient's intraocular pressure measures 18 mmHg in the right eye, and 17 mmHg in the left eye. Their blood pressure and pulse rate remain normal. The patient is re-evaluated every 3 months with the continuation of combination therapy.

[3] = Autoradiography of the eye after topical ophthalmic instillation; format: in vivo, albino and pigmented rabbits
Procedure: General disposition of topical ophthalmic 1-amino-3,5-dimethyladamantane hydrochloride (memantine) instillation was assessed by autoradiography. Briefly, albino and pigmented rabbits were dosed via topical ophthalmic instillation with a 0.74% aqueous isotonic memantine solution, pH 7.4. After dosing autoradiographic sections of the eye were acquired at 0.25, 0.5, 1, and 2 and 24 hours post dosing. […] Further, a qualitative assessment of residence time could be made from the data.

[4] = Aqueous solubility of memantine HCl; format: physicochemical; conditions: HCl salt, pH 6.5 aqueous solution
Source text: (§1) For example, memantine may be employed as an EEC in accordance with this invention. […] The memantine HCl apparent octanol/water partition coefficient is Log 3.0. The high apparent partition and high solubility appear contradictory. However, the charged amine of memantine HCl (pKa 10.27) results in the high solubility while the free base results in the high partitioning of memantine into octanol. As the HCl salt and free base are in equilibrium, permeation of the free base through biologic tissues results. The impact of a high solubility and a high partition coefficient of the free base are a high bioavailability.

[5] = pKa of the charged amine; format: physicochemical; conditions: charged amine of memantine HCl
Source text: as §1

[6] = Apparent octanol/water partition coefficient; format: physicochemical; conditions: memantine HCl, printed as Log 3.0
Source text: as §1

[7] = Ocular tissue concentrations after oral and topical dosing; format: in vivo, Rabbits; conditions: rabbit, retina, read-out: retinal memantine concentration
Procedure: Ocular tissue concentrations were also determined after oral and topical dosing. Rabbits were dosed topically with 35 μl of a 0.1% aqueous solution of memantine twice a day for 7 days. Another subset of rabbits was dosed orally with 2 mg/kg memantine for seven days. At the end of the dosing period ocular tissue concentrations were quantified. The retinal memantine concentrations from topical and oral dosing were essentially equivalent (107 ng/ml and 108 ng/ml, respectively).

[8] = In-vitro melanin binding
[9] = tested on: fungal corneal ulcer; assay: Patient case, fungal corneal ulcer (Example 3); format: in vivo, human; conditions: next day; 5% natamycin drops each hour (day) / every two hours (night) with 5% homatropine four times each day
Procedure: A […] […] […] comes to a clinic complaining of severe pain, redness, tearing, and photophobia in […] left eye. One day before, the patient was hit by a tree twig while playing football in the park. Severe conjunctival hyperemia with clear discharge is observed. […] Intraocular pressure is also elevated (20 mmHg) by Goldman tonometry. A fungal corneal ulcer is diagnosed. The patient is administered 5% natamycin drops each hour during the day and every two hours at night and 5% homatropine four times each day for […] left eye. […] The patient is experiencing blurriness in the left eye. […] The extent of Na Fl stain is also enlarged. The patient is given 0.15% amphotericin B drops and 5% ketoconazole-conjugate drops once daily in both eyes. […] 5% natamycin drops every two hours are administered around the clock, as well as 5% homatropine two times daily, and 5% ketoconazole-conjugate drops once daily.

Structure (SMILES): CC12CC3CC(N)(C1)CC(C(=O)OCC(CO)OCn1cnc4c(=O)[nH]c(N)nc41)(C3)C2 (stereo not shown) [Ganciclovir-conjugate]
clinical outcome ([1]; one month follow-up, same regimen): complete remission of ocular manifestations of CMV retinitis
ophthalmic examination outcome ([1]; two-week follow-up, 0.5% 1 drop four times daily in both eyes): reduction in hemorrhages around the retinal vessels and cotton wool spots

pulse rate ([2]; human, in vivo): 65 beats/min
Structure (SMILES): CC(C)(C)NC[C@H](O)COc1nsnc1N1CCOCC1 [Timolol]
intraocular pressure ([2]; after two weeks of Timolol 0.5% 1 drop two times daily, both eyes, baseline 32 mmHg, Goldmann tonometer): 28 mmHg
blood pressure ([2]; human, in vivo): 118/86

Structure (SMILES): CC12CC3CC(C)(C1)CC(N)(C3)C2.Cl [memantine, 1-amino-3,5-dimethyladamantane hydrochloride]
tissue distribution after topical dosing (autoradiography) ([3]; 0.74% aqueous isotonic solution pH 7.4, topical ophthalmic, sections 0.25-24 h post dosing): present in the posterior sclera, choroids and/or retina
half-life in the posterior globe (qualitative) ([3]; albino and pigmented rabbits, topical ophthalmic 0.74% solution): relatively long
binding to ocular melanin (autoradiography intensity in pigmented tissues) ([3]; pigmented tissues, topical ophthalmic 0.74% solution): bound to the ocular melanin
route of penetration from topical delivery (autoradiography) ([3]; topical delivery): trans-retinal route of penetration across the blood-retinal barrier
solubility [4]: 3.5%
pKa [5]: 10.3
apparent octanol/water partition coefficient (Log) [6]: 3.0
concentration at 7 days ([7]; 35 μl of a 0.1% aqueous solution, topical, 35 μl of 0.1% aqueous solution twice a day for 7 days): 107 ng/mL
concentration at 7 days ([7]; oral, 2 mg/kg for seven days): 108 ng/mL
binding to natural and synthetic melanin [8]: strongly bound

Structure (SMILES): C[C@@H]1C/C=C/C=C/C=C/C=C/[C@H](O[C@@H]2O[C@H](C)[C@@H](O)[C@H](N)[C@@H]2O)C[C@@H]2O[C@](O)(C[C@@H](O)C[C@H]3O[C@@H]3/C=C/C(=O)O1)C[C@H](O)[C@H]2C(=O)O [natamycin]
clinical outcome [9]: symptoms have not improved
